The target in test [1] is RXFP4 (h) (agonist radioligand) (Homo sapiens, UniProt Q8TDU9). As to the kind of experiment: GPCR Biosensor cAMP Hunter assay, RXFP4. The test is classed as cell-based. The procedure: Benedin is found to weakly bind with RXFP4 and RXFP3 receptors (Study FR095-0024749-Q Eurofins/leadHunter Jun. 25, 2021; unpublished data) (Table 2).
In these assays' compounds were tested in agonist and antagonist mode with the GPCR Biosensor Assays and match to this design:
1. cAMP Hunter cell lines were expanded from freezer stocks according to standard procedures.
2. Cells were seeded in a total volume of 20 μL into white walled, 384-well microplates and incubated at 37° C. for the appropriate time prior to testing.
3. cAMP modulation was determined using the DiscoverX HitHunter CAMP XS+assay.
1. For agonist determination, cells were incubated with sample in the presence of EC80 forskolin to induce response.
2. Media was aspirated from cells and replaced with 15 μL 2:1 HBSS/10 mM Hepes: CAMP XS+Ab reagent. […]
2. Microplates were read following signal generation with a PerkinElmer Envision™ instrument for chemiluminescent signal detection.
5. For Gi agonist mode assays, percentage activity is calculated using the following formula: % Activity=100%×(1−(mean RLU of test sample-mean RLU of MAX control)/(mean RLU of vehicle control−mean RLU of MAX control)).
8. For Gi antagonist or negative allosteric mode assays, percentage inhibition is calculated using the following formula: % Inhibition=100%×(mean RLU of test sample−mean RLU of EC80 control)/(mean RLU of forskolin positive control−mean RLU of […]

Test [2] concerns the target T1, NET (h) (antagonist radioligand) (Homo sapiens, UniProt P23975).
T1 construct: CEREP (Eurofins, France), contract panel
Briefly: Radioligand binding panel (Eurofins/CEREP), NET. Conditions: % inhibition of control specific binding. The procedure:
Benedin was tested at 10^−5 M, calculated as a % inhibition of control specific binding of a radioactively labeled ligand specific for each target.
This binding profile panel was broadly defined with roughly an equal number of selective, central and peripheral therapeutically relevant targets, including native animal tissues, radioligands and specific enzymes involved in cell cycle regulation in accordance with Eurofins Standard Operating Procedure.
For radioligand binding experiments, the half maximal inhibitory concentration (IC50) and the half maximal effective concentration (EC50) values were determined (via computer software) by nonlinear regression analysis of the competition curves using Hill equation curve fitting. The inhibition constants (Ki) were calculated using the Cheng-Prusoff equation (Ki=IC50/(1+(L/KD)), where L is the concentration of radioligand in the assay, and KD is the affinity of the radioligand for the receptor.^60
The results are expressed as a % control specific binding ([measured specific binding/control specific binding]×100) and as a % inhibition of control specific binding (100−[(measured specific binding/control specific binding)×100] obtained in the presence of the test compounds. […]

Where [3] appears, read: 10^−5 M, read-out: % Inhibition at 10^−5M Benedin.

RXFP4 (h) (agonist radioligand), sequence (Q8TDU9 whole entry): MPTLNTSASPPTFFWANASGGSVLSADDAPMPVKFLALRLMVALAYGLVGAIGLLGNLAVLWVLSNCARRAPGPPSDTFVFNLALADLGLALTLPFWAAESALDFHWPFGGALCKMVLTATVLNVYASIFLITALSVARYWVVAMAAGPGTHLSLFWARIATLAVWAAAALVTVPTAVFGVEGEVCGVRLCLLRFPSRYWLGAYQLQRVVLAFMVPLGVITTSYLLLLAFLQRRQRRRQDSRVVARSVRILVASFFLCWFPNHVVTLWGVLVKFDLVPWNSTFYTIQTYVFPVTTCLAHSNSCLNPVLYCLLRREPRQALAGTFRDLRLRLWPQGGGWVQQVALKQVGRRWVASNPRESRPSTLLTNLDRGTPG
T1 sequence (P23975 whole entry): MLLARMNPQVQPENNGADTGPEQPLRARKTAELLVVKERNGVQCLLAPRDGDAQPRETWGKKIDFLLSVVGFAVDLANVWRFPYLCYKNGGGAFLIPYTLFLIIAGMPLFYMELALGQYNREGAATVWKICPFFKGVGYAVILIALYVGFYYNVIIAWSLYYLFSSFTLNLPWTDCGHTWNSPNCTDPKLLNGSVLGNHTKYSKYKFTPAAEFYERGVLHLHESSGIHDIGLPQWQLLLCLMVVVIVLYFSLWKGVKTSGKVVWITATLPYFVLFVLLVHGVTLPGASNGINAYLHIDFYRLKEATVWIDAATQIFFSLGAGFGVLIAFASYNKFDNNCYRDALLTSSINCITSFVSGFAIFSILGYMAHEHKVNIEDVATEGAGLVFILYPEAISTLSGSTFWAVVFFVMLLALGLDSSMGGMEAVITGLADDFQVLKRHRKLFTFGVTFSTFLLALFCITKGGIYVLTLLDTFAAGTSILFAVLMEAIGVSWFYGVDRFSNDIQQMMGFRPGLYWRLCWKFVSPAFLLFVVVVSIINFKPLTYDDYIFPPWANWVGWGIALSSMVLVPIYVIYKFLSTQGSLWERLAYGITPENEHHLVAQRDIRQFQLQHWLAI

Regarding `CN1CCCC(O)C1C(c1ccccc1)c1ccccc1` (stereo not shown) [Benedin, 2-benzhydryl-3-hydroxy-N-methyl-piperidine], the “% Inhibition at 10^−5M Benedin” value was “weakly bind” in test [1] and “appreciable potencies” in test [2]. Further, the inhibition (as a rule, the relative decrease from the control value, in per cent) at 10 µM came to 26.3% in test [1] (setting [3]) and 71.9% in test [2] (setting [3]).
